Assays:
[1] = Appearance (solubility) of shampoo with musk, increased load; format: physicochemical
[2] = Appearance of musk in laundry detergent base; format: physicochemical
Protocol: Furthermore, musk lactone mixture A and other musks were also evaluated at two different loadings in laundry detergent base, as shown in Tables 38 and 39.

[3] = In use comparison of musk lactone mixture A with commercial musks in unperfumed laundry detergent, expert panel; parameters: species or system human; conditions: for DAMP HED / DAMP STR: damp towel; for DAMP HED / DRY TWL 1 DAY HED / DRY TWL 7 DAYS HED / DRY TWL 15 DAYS HED / JAR HED: hedonic; for DAMP STR / DRY TWL 1 DAY STR / DRY TWL 7 DAYS STR / DRY TWL 15 DAYS STR / JAR STR: strength; for DRY TWL 1 DAY HED / DRY TWL 1 DAY STR: dry towel 1 day; for DRY TWL 7 DAYS HED / DRY TWL 7 DAYS STR: dry towel 7 days; for DRY TWL 15 DAYS HED / DRY TWL 15 DAYS STR: dry towel 15 days; for JAR STR: jar (point of purchase)
Protocol: Olfactive evaluations in use were performed by an expert panel. The range of materials evaluated was comprehensive, including musk products commercially available: Nitromusk, Polycyclic and Macrocyclic categories (Ambrettolide, Dihydro Ambrettolide, Scentolide, Muscone, Muscenone, Velvione, Musk Ambrette, Edenolide, Ethylene Brassylate, Galaxolide, Tonalide, Habanolide, Globanone, Macrolide, Oxalide T and others).
Evaluation samples were prepared using unperfumed laundry detergent (formulation example in Example 4, Table 10) at two different dosages: 10% Solution @ 0.8% (yielding 0.08% musk lactone mixture A) or 1.5% (yielding 0.15% musk lactone mixture A) driven by relative product performance in formulas and practical laboratory practices to execute the comparisons. The concentration of musk lactone mixture A in each evaluation was at the same concentration as the commercial musk.
The evaluations were performed in use stages: Jar (POP—Point of purchase), damp towel, Dry towel (1 day) and Storage Dry towel (7 days and 15 days). A five points scale was utilized, rating both strength and hedonic character: • Strength (STR) is rated as the overall scent power coming up from the substrate, due to physicochemical properties and commonly described as a combination of diffusion, bloom, body and or volume perceptions.

[4] = Fiber substantivity: odor strength on fabric treated with softener, 14 member-panel; parameters: species or system human; conditions: 70% in isopropyl myristate dosed 0.25% w/w in softener; line dried 20 hours; 9 (very good) to 0 (very poor)
Protocol: Additionally, substantivity is evaluated olfactively by a panel after treating samples of substrate with a perfumed product, such as a fabric softener for cotton fabric or a shampoo for hair, containing the lactones described herein or other musk fragrances for comparison, according to standard procedures described below. Thus, the evaluation is essentially a relative odor intensity measurement. It is known that the perceived odor intensity of mixtures of perfume ingredients when evaluated as such is generally less than the sum of the perceived odors of the components. Thus, the perceived odor intensity of a 1:1 mixture of 2 of the components of the lactones described herein would be expected to be lower than the sum of the intensities of the separate components, i.e. in such mixtures odor suppression is generally found. On the contrary, the perceived odor intensity on substrate treated with the lactones described herein is at least equal to, but in most cases greater than the perceived intensity of substrate treated with equal amounts of the separate components.
Comparison of the fiber substantivity of single polycyclic musks and macrocyclic musks with musk mixtures is described herein. 70% Solutions in isopropyl myristate of the musks and musk mixtures to be tested are dosed at 0.25% w/w in a single Arquad fabric softener (GT 117B). The test is carried out by rinsing “6″×6” (weight: 16 g) cotton terry towel pieces at ambient temperature in a tergotometer according to the procedure below: • 3 g of fabric softener containing the test musk is added to 1 liter of water and agitated for one minute to disperse. The fabric piece is added and washed for 10 minutes with constant agitation at 100 rpm. On completion of the wash cycle, the pieces are hand wringed and line dried for 20 hours. • The cloths are assessed olfactively by a 14 member-panel. A 10-point scale is used running from 9 (very good) to 0 (very poor).

Odor strength on blotter = test: Odor strength on blotter; parameters: species or system human
Source text: The results are presented below in Table 23a and Table 23b:

[5] = 0.04% Musk in laundry detergent base
[6] = 0.08% Musk in laundry detergent base

Row | Compound | Appearance [2, 5] | Appearance [2, 6] | DAMP HED ([3]; 10% IPM @0.8%) | DAMP STR ([3]; 10% IPM @0.8%) | DRY TWL 1 DAY HED ([3]; 10% IPM @0.8%) | DRY TWL 1 DAY STR ([3]; 10% IPM @0.8%) | DRY TWL 7 DAYS HED ([3]; 10% IPM @0.8%) | DRY TWL 7 DAYS STR ([3]; 10% IPM @0.8%) | DRY TWL 15 DAYS HED ([3]; 10% IPM @0.8%) | DRY TWL 15 DAYS STR ([3]; 10% IPM @0.8%) | JAR STR ([3]; 10% IPM @0.8%) | JAR HED ([3]; 10% IPM @0.8%) | other results
1 | O=C1CCCCC/C=C\CCCCCCCCO1 [Ambrettolide] | Very cloudy | Phase separation | + ((+) directionally superior) | −− ((−−) Significantly inferior) | −/− ((−) directionally inferior) | −/− ((−) directionally inferior) | −/− ((−) directionally inferior) | −/− ((−) directionally inferior) | −/− ((−) directionally inferior) | −/− ((−) directionally inferior) | −− ((−−) Significantly inferior) | − ((−) directionally inferior) | appearance of shampoo formula ([1]; 0.3% musk with 0.2% fruity floral fragrance oil): cloudy; appearance of shampoo formula ([1]; lower level of ambrettolide (0.2%)): remaining clear
2 | O=C1CCCCCCCCCCCC(=O)OCCO1 [Ethylene Brassylate, ethylene brassilate] | Very cloudy | Phase separation | – | – | – | – | – | – | – | – | – | – | DAMP HED ([3]; 10% IPM @1.5%): −− /−− ((−−) Significantly inferior); DAMP STR ([3]; 10% IPM @1.5%): −− /−− ((−−) Significantly inferior); DRY TWL 1 DAY HED ([3]; 10% IPM @1.5%): −−/−− ((−−) Significantly inferior); DRY TWL 1 DAY STR ([3]; 10% IPM @1.5%): −−/−− ((−−) Significantly inferior); DRY TWL 7 DAYS HED ([3]; 10% IPM @1.5%): −−/−− ((−−) Significantly inferior); DRY TWL 7 DAYS STR ([3]; 10% IPM @1.5%): −−/−− ((−−) Significantly inferior); DRY TWL 15 DAYS HED ([3]; 10% IPM @1.5%): −−/−− ((−−) Significantly inferior); DRY TWL 15 DAYS STR ([3]; 10% IPM @1.5%): −−/−− ((−−) Significantly inferior); JAR STR ([3]; 10% IPM @1.5%): −−/−− ((−−) Significantly inferior); JAR HED ([3]; 10% IPM @1.5%): −−/−− ((−−) Significantly inferior)
3 | CC1COCc2cc3c(cc21)C(C)(C)C(C)C3(C)C (stereo not drawn) [Galaxolide, galaxolide] | Very cloudy | Phase separation | – | – | – | – | – | – | – | – | – | – | ODOR STRENGTH ON FABRIC TREATED WITH SOFTENER, Rating (10-point scale) [4]: 3.8; ODOR STRENGTH ON BLOTTER, Rating (10-point scale) (Odor strength on blotter): 5.8; DAMP HED ([3]; 10% IPM @1.5%): −−/−− ((−−) Significantly inferior); DAMP STR ([3]; 10% IPM @1.5%): −−/−− ((−−) Significantly inferior); DRY TWL 1 DAY HED ([3]; 10% IPM @1.5%): −−/−− ((−−) Significantly inferior); DRY TWL 1 DAY STR ([3]; 10% IPM @1.5%): −−/−− ((−−) Significantly inferior); DRY TWL 7 DAYS HED ([3]; 10% IPM @1.5%): −−/−− ((−−) Significantly inferior); DRY TWL 7 DAYS STR ([3]; 10% IPM @1.5%): −−/−− ((−−) Significantly inferior); DRY TWL 15 DAYS HED ([3]; 10% IPM @1.5%): −−/−− ((−−) Significantly inferior); DRY TWL 15 DAYS STR ([3]; 10% IPM @1.5%): −−/−− ((−−) Significantly inferior); JAR STR ([3]; 10% IPM @1.5%): −−/−− ((−−) Significantly inferior); JAR HED ([3]; 10% IPM @1.5%): −−/−− ((−−) Significantly inferior)
4 | O=C1CCCCCCCCCCCCCCCO1 [Hexadecanolide] | – | – | – | – | – | – | – | – | – | – | – | – | ODOR STRENGTH ON FABRIC TREATED WITH SOFTENER, Rating (10-point scale) [4]: 4.8; ODOR STRENGTH ON BLOTTER, Rating (10-point scale) (Odor strength on blotter): 5.8
5 | CC1CC=CCCCCCCCCCC(=O)C1 (stereo not drawn) [MUSCENONE, muscenone] | – | – | ++ | + ((+) directionally superior) | ++/++ | ++/++ | ++/++ | ++/++ | ++/++ | ++/++ | + ((+) directionally superior) | ++ | –
6 | C[C@@H]1CCCCCCCCCCCCC(=O)C1 [MUSCONE, Muscone] | – | – | + ((+) directionally superior) | ++ | ++ | + ((+) directionally superior) | ++ | + ((+) directionally superior) | ++ | + ((+) directionally superior) | ++/++ | ++/++ | –
7 | O=C1CCCCCCCCOCCCCCCO1 [OXALIDE T, Oxalide T] | – | – | 0/0 (comparable) | 0/0 ((0) comparable) | 0/0 (comparable) | 0/0 ((0) comparable) | 0/0 (comparable) | 0/0 ((0) comparable) | 0/0 (comparable) | 0/0 ((0) comparable) | 0 ((0) comparable) | − ((−) directionally inferior) | –
8 | CC(=O)c1cc2c(cc1C)C(C)(C)C(C)CC2(C)C (stereo not drawn) [Tonalid, tonalid] | – | – | – | – | – | – | – | – | – | – | – | – | ODOR STRENGTH ON FABRIC TREATED WITH SOFTENER, Rating (10-point scale) [4]: 7.2; ODOR STRENGTH ON BLOTTER, Rating (10-point scale) (Odor strength on blotter): 8.2
9 | O=C1CCCCCCCCCCCCCCCO1 [dihydroambrettolide] | Very cloudy | Phase separation | + ((+) directionally superior) | 0 ((0) comparable) | + ((+) directionally superior) | 0 ((0) comparable) | + ((+) directionally superior) | 0 ((0) comparable) | + ((+) directionally superior) | 0 ((0) comparable) | 0 ((0) comparable) | − ((−) directionally inferior) | –
10 | CC1CCCCCCCCCCCCC(=O)C1 (stereo not drawn) [l-muscone, muscone laevo] | Very cloudy | Phase separation | – | – | – | – | – | – | – | – | – | – | –
11 | COc1c(C(C)(C)C)cc([N+](=O)[O-])c(C)c1[N+](=O)[O-] [musk ambrette] | – | – | − ((−) directionally inferior) | ++ | 0 (comparable) | + ((+) directionally superior) | 0 (comparable) | + ((+) directionally superior) | 0 (comparable) | + ((+) directionally superior) | ++ | − ((−) directionally inferior) | –
12 | CC(=O)c1cc2c(cc1C)C(C)(C)C(C)CC2(C)C (stereo not drawn) [tonalide/fixolide] | Very cloudy | Phase separation | – | – | – | – | – | – | – | – | – | – | –
13 | O=C1CCC/C=C\CCCCCCCCCC1 [velvione] | Very cloudy | Phase separation | +/+ ((+) directionally superior) | +/+ ((+) directionally superior) | ++/++ | ++/++ | ++/++ | ++/++ | ++/++ | ++/++ | + ((+) directionally superior) | 0 (comparable) | –
14 | Edenolide | – | – | −/− ((−) directionally inferior) | −/− ((−) directionally inferior) | 0/0 (comparable) | 0/0 ((0) comparable) | 0/0 (comparable) | 0/0 ((0) comparable) | 0/0 (comparable) | 0/0 ((0) comparable) | 0/0 ((0) comparable) | 0/0 (comparable) | –
15 | Scentolide | – | – | 0 / 0 (comparable) | 0 / 0 ((0) comparable) | −/− ((−) directionally inferior) | −/− ((−) directionally inferior) | −/− ((−) directionally inferior) | −/− ((−) directionally inferior) | −/− ((−) directionally inferior) | −/− ((−) directionally inferior) | 0/0 ((0) comparable) | 0/0 (comparable) | –

From US11639483B2, “Macrocyclic musk lactones and uses thereof” (PHYTO TECH CORP., priority 2021, dated 2023)
